Tests used:
184B5 = experiment: SRB antiproliferative assay, 184B5 non-cancer breast cells; type: cell-based, human; conditions: Homo sapiens, 184B5, SRB
Protocol: Antiproliferative effects were determined by a sulforhodamine B (SRB) based protocol. For a typical screening experiment, 5,000-10,000 cells were inoculated into 100 μl medium per well of a 96-well microtiter plate as described previously. […] Some of the sample wells were fixed with 25 μl of 50% trichloroacetic acid (TCA) as a control of the cell population for each cell line at the time of drug addition (Tz). An aliquot of the frozen stock was thawed and diluted to the desired final maximum test-concentration with complete medium. Two to ten-fold serial dilutions were made to provide a total of seven drug concentrations (and a control [C]). Following addition of drugs, the culture plate was incubated for additional 48 h. Cells were fixed in situ by slowly adding 25 μl of ice-cold 50% (w/v) TCA (final concentration, 10% TCA), and were then incubated for 60 min at 4° C. The supernatant was discarded, and the plate was washed five times with tap water, followed by air-dry. 50 μl of SRB solution at 0.4% (w/v) in 1% acetic acid was added to each well, and the plate was incubated for >30 min at room temperature. Unbound SRB was removed by five washes with tap water, followed by air-drying. […] The relative growth rate (%) was calculated for each of the compound concentrations according to the following formula: (Ti−Tz)/(C−Tz)×100 In the formula, time zero (Tz), control growth (C), and OD for different concentration of tested compounds (Ti). The GI50 for each compound was obtained from a non-linear Sigmoidal dose-response (variable slope) curve which is fitted by GraphPad Prism™ v.4.03 software. Values were calculated for each of these parameters if the level of activity was reached. However, if the effect was not reached or was exceeded, the value for that parameter was expressed as greater or less than the maximum or minimum concentration tested. Flow Cytometry

U87MG = experiment: SRB antiproliferative assay, U87MG; type: cell-based; conditions: Homo sapiens, U-87 MG
Protocol: Antiproliferative effects were determined by a sulforhodamine B (SRB) based protocol. For a typical screening experiment, 5,000-10,000 cells were inoculated into 100 μl medium per well of a 96-well microtiter plate as described previously. Briefly, after the inoculation, the microtiter plate was incubated at 37° C., 5% CO2, 95% air and 100% relative humidity for 24 h, prior to addition of experimental drugs. Some of the sample wells were fixed with 25 μl of 50% trichloroacetic acid (TCA) as a control of the cell population for each cell line at the time of drug addition (Tz). An aliquot of the frozen stock was thawed and diluted to the desired final maximum test-concentration with complete medium. […] The cells “stained” with SRB were solubilized with 10 mM trizma base, and the absorbance was read on an automated plate reader at a wavelength of 515-564 nm. The relative growth rate (%) was calculated for each of the compound concentrations according to the following formula: (Ti−Tz)/(C−Tz)×100 In the formula, time zero (Tz), control growth (C), and OD for different concentration of tested compounds (Ti). […] Values were calculated for each of these parameters if the level of activity was reached. However, if the effect was not reached or was exceeded, the value for that parameter was expressed as greater or less than the maximum or minimum concentration tested. […]

MCF10A non-cancer cells = experiment: Confocal microscopy of centrosomes, MCF10A non-cancer cells; type: cell-based, human; conditions: VR-23 20 μM, 3 hours post-DT
Description: All immunocytochemistry experiments were visualized by confocal microscopy using a Zeiss 510 Meta laser scanning microscope (Carl Zeiss) equipped with a 63× objective lens, unless otherwise specified herein. Three lasers were utilized for excitation with the following band pass filter settings used for detection: Argon 488 nm (band pass 505-530), HeNe 543 nm (long pass 560) and 633 nm (long pass 650). All images were captured and analyzed using LSM 510 software included with the microscope (LSM Image Examiner™, Carl Zeiss).
The synchronization at the G1/S border (more accurately at the beginning of S phase) was achieved by double thymidine block (DT). Briefly, exponentially growing cells are treated with 2.0 mM thymidine for 18 hours, followed by incubation for 11 hours in drug-free complete medium, by which time most cells are at mid-late G1 phase. The cells are then incubated for another 14 hours in 2.0 mM thymidine to arrest them at the G1/S border. To arrest cells at the G2/M phase, cells were maintained for 18 hours in complete medium containing nocodazole (50 ng/ml). Both these synchronization are reversible.
MCF10A (non-cancer breast) cells synchronized at G1/S by DT were released into complete medium for 3 hours in the absence (control) or presence of VR-23 (20 μM), followed by immunostaining with an antibody specific for cyclin E (FIG. 19A) or Plk1 or Plk4 (FIG. 19B). […]

O=[N+]([O-])c1ccc(S(=O)(=O)N2CCN(c3ccnc4cc(Cl)ccc34)CC2)c([N+](=O)[O-])c1 [Compound 1, 7-Chloro-4-(4-(2,4-dinitrophenylsulfonyl)piperazin-1-yl)quinoline]
IC50 (184B5): 9 ± 0.1 µM | GI50 (184B5; 48 h, read-out: GI50 184B5): 8.99 ± 0.12 µM | IC50 (U87MG): 800 ± 100 nM | Centrosome amplification in MCF10A (MCF10A non-cancer cells): did not cause centrosome amplification
